The results in this text go back to publication PMC10897476, “Pyridylpiperazine efflux pump inhibitor boosts in vivo antibiotic efficacy against K. pneumoniae” (EMBO Molecular Medicine, 2023).

The structures appear in SMILES notation. Marks after values point to notes of the source that are not given here.

Series [1] relates to K. pneumoniae ATCC 43816 (WT). Nature of the series: MIC of antibiotics with and without EPI (REMA), WT strain. It is filed as cell-based, Klebsiella pneumoniae. The note with it: K. pneumoniae WT. The procedure:
Overnight cultures were diluted to an OD600 = 0.001 in CAMHB followed by addition of efflux pump inhibitors (EPIs) at a final concentration of 100 µM. […] Plates were incubated at 37 °C for up to 20 h. […] MICs were defined as the concentration that prevented 90% of resazurin turnover compared to the non-treated bacteria.

A further series deals with E. coli BW25113. Briefly: PyrPip boosting of pyridomycin activity in E. coli (resazurin reduction). The note with it: read-out: PyrPip antibiotic boosting activity EC90; E. coli BW25113 in the presence of 8 μg/mL pyridomycin, resazurin reduction; mean ± SEM. It is filed as cell-based, Escherichia coli. The text has this:
With the aim of developing a PyrPip for in vivo efficacy studies in mice, it was important to optimise the metabolic stability of these efflux pump inhibitors to guarantee sufficient exposure in mice needed for antibiotic boosting. […] To identify metabolically stabilised PyrPips while maintaining AcrB inhibition, it was therefore decided to explore modifications to the quinoline core as well as the introduction of substituents at position 6 of the quinoline ring.
(The colour change of resazurin is a common sign of viable cells or microbes.)

The nature of series [2]: Microsomal stability in mouse liver microsomes. It is filed as in vitro ADME. Particulars: female. As to the method:
To determine compound microsomal stability, liver microsomes from female mice (CD-1, Corning) were used. All incubations were performed in duplicate in a shaking water bath at 37 °C. The incubation mixtures contained 1 μM compound with 1% MeOH used as a vehicle, mouse liver microsomes (0.3 mg of microsomal protein per mL), 5 mM MgCl2, 1 mM NADP, 5 mM glucose 6-phosphate, 0.4 U/mL glucose 6-phosphate dehydrogenase, and 50 mM potassium phosphate buffer (pH 7.4) in a final volume of 0.5 mL. Propranolol, known as a high hepatic clearance drug in rodents, was used as a quality-control compound. Controls (t0 and tfinal) were performed in the same conditions but without NADP. The reaction was initiated by the addition of the compound at 1 µM final. Aliquots were removed at 5, 10, 20, 30, and 40 min and the reaction was stopped by adding four volumes of ice-cold MeCN or MeOH containing an internal standard. The samples were centrifuged for 10 min at 12,000 rpm at 4 °C and the supernatants were transferred in matrix tubes for LC-MS/MS analysis. Each compound was quantified by converting the corresponding analyte/internal standard peak area ratios to percentage drug remaining, using the initial ratio values in control incubations as 100%.
Intrinsic clearance (CLint) is expressed as μL/min/mg proteins.

Series [3] deals with T1, hERG Human Potassium Ion Channel (Homo sapiens, UniProt Q12809).
T1 construct: Eurofins Cerep France (contract assay)
T1 sequence (Q12809 whole entry): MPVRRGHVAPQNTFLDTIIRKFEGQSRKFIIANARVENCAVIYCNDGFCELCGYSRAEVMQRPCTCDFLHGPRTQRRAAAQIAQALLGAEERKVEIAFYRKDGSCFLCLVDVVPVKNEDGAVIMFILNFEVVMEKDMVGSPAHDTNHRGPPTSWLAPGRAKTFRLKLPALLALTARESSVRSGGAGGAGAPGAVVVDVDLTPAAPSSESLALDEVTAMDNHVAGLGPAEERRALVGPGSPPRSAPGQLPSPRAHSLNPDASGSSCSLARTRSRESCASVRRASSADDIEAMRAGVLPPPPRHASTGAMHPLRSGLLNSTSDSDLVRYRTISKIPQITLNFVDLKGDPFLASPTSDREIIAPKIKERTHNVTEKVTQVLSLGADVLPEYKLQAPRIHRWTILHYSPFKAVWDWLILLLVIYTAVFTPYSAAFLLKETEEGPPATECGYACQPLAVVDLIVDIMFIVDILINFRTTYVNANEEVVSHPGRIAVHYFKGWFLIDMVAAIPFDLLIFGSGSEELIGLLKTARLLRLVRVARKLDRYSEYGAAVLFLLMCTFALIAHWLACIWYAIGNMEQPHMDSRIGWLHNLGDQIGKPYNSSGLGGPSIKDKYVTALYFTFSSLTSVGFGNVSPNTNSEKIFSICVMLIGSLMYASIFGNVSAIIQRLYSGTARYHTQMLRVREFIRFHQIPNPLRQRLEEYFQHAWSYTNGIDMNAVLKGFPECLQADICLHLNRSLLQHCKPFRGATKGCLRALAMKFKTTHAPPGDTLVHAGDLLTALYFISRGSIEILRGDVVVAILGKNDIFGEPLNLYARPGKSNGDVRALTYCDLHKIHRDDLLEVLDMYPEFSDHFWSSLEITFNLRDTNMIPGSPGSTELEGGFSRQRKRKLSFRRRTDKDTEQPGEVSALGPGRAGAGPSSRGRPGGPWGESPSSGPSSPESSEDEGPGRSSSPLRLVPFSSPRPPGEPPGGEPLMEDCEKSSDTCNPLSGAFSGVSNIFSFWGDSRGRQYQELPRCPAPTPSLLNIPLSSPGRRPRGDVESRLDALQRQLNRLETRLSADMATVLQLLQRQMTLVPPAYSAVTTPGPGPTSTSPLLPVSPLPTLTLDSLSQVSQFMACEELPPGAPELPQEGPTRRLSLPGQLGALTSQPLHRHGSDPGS
Briefly: hERG [3H] Dofetilide binding assay. Particulars: at 30 µM. The procedure: hERG (human ether-a-go-go-related gene) inhibition was measured at Eurofins Cerep France using hERG Human Potassium Ion Channel [3H] Dofetilide Binding (Antagonist Radioligand) Assay.
A general note: The hERG channel carries a current that helps repolarise heart muscle cells.

In the case of `C[C@H]1COc2c(N3CCN(C)CC3)c(F)cc3c(=O)c(C(=O)O)cn1c23` [Levofloxacin], the “Minimum Inhibitory Concentration” value is recorded as 0.01^# mg/L in series [1] (+ 100 µM 1'), 0.01^# mg/L in series [1] (+ 100 µM 5) and 0.02^# mg/L in series [1] (+ 100 µM PAβN). In addition, the MIC in series [1] (Klebsiella pneumoniae, ATCC43816, No EPI, read-out: Minimum Inhibitory Concentration) worked out at 0.04 µg/mL.

On to `Clc1cc2cc(N3CCNCC3)ccc2nc1N1CCNCC1` [compound 5], for which the EC90 in the series with E. coli BW25113 amounted to 3.3 ± 1.7 µM. In addition, the intrinsic clearance (microsomal CLint) at 1 μM in series [2] (CD-1, pH 7.4, read-out: Microsomal stability CLint (intrinsic clearance)) worked out at 6 µL/min/mg. In addition, the half-life at 1 μM in series [2] (CD-1, pH 7.4, read-out: Microsomal stability t1/2) was over 40 min. Moreover, the “inhibition of the hERG potassium channel” value in series [3] was found to be 8%.

As a reminder, the EC90 is the concentration at which the effect reaches the 90% level. Broadly, the microsomal CLint is the capacity of the preparation to metabolise the compound, expressed as a volume cleared per time.
